According to ChEMBL document CHEMBL5505960, “Synthesis and evaluation of butylphthalide-scutellarein hybrids as multifunctional agents for the treatment of Alzheimer's disease” (Eur J Med Chem, 2024):
Active and inactive are the calls of the source. No cut-off for these calls is given here.

Experiments:
HT-22 [1] = test: Neuroprotective activity against amyloid beta (1 to 42) induced cell injury in mouse HT-22 cells assessed as cell viability at 50 uM incubated for 24 hrs by MTT assay; format: functional, cell-based
[2] = Antioxidant activity assessed as inhibition of Cu2+-induced ROS production by measuring decrease in fluorescence intensity in presence of Cu2+ and ascorbate; format: functional
BV-2 [3] = test: Antineuroinflammatory activity in LPS-induced mouse BV-2 cells assessed as inhibition of NO release at 2.5 uM preincubated for 30 mins followed by LPS stimulation and measured after 24 hrs relative to control; format: functional; set-up: scale not given: the % may be the effect or the level left; details: time 24.5 hrs
[4] = AUC (0 to t) in Balb/C mouse brain at 30 mg/kg, IG measured upto 8 hrs by LC-MS analysis; format: ADME, organism-based; details: in vivo, po
BV-2 [5] = test: Cytotoxicity against LPS-induced mouse BV-2 cells assessed as cell viability at 0.5 to 10 uM incubated for 24 hrs by MTT assay; format: toxicity, cell-based; details: bv-2, 24 h, dose 0.5-10 µM
HT-22 [6] = test: Neuroprotective activity against amyloid beta (1 to 42)-induced injury in mouse HT-22 cells assessed as inhibition of ROS accumulation measured after 24 hrs by DCFH-DA staining based fluorescence microscopy analysis; format: functional, cell-based; details: dose 2.5-10 µM
[7] = target: Amyloid-beta precursor protein (Homo sapiens) (UniProt P05067); test: Inhibition of amyloid beta (1 to 42) (unknown origin) fibrillation assessed as reversal of A-beta 1-42 induced morphological changes at 25 uM measured after 24 hrs by TEM analysis
[8] = Metal chelating activity assessed as compound-Zn2+ complex formation by measuring bathochromic shift at 301 to 345nm in the presence of ZnCl2 by UV-Visible spectrophotometric analysis
HT-22 [9] = test: Neuroprotective activity against amyloid beta (1 to 42)-induced injury in mouse HT-22 cells assessed as reversal of reduced cell synapse length at 2.5 to 10 uM measured after 24 hrs […]; format: functional, cell-based; details: dose 2.5-10 µM
[10] = Ratio of AUC (0 to t) in Balb/C mouse brain at 30 mg/kg, IG measured upto 8 hrs by LC-MS analysis; format: ADME, organism-based; details: po
BV-2 [11] = test: Antineuroinflammatory activity in LPS-induced mouse BV-2 cells assessed as inhibition of TNF-alpha release at 2.5 uM preincubated for 30 mins followed by LPS stimulation and measured after 24 hrs relative to control; format: functional; set-up: scale not given: the % may be the effect or the level left; details: time 24.5 hrs
PC-12 [12] = test: Cytotoxicity against rat PC12 cells at 25 uM measured after 24 hrs by MTT assay; format: functional, cell-based
Mus musculus [13] = test: Neuroprotective activity in C57BL/6 mouse assessed as amelioration of sodium nitrite induced memory impairement at 1.1 to 9.9 mg/kg, IG administered daily for 7 days; format: functional, organism-based; details: dose 1.1-9.9 mg/kg, time 7.0 day
Mus musculus [14] = test: Neuroprotective activity against Abeta42 induced cognition impairement in AD mouse model assessed as reduction in number of error at 1.1 to 9.9 mg/kg, IG administered daily for 7 days by passive avoidance test; format: functional, organism-based; details: dose 1.1-9.9 mg/kg, time 7.0 day
BV-2 [15] = test: Antineuroinflammatory activity in LPS-induced mouse BV-2 cells assessed as inhibition of TNF-alpha release at 10 uM preincubated for 30 mins followed by LPS stimulation and measured after 24 hrs relative to control; format: functional; set-up: scale not given: the % may be the effect or the level left; details: time 24.5 hrs
[16] = target: Amyloid-beta precursor protein (Homo sapiens) (UniProt P05067); test: Inhibition of amyloid beta (1 to 42) (unknown origin) fibrillation assessed as reduction in Cu2+ induced shorter fibrils at 25 uM measured after 24 hrs by TEM analysis
BV-2 [17] = test: Antineuroinflammatory activity in LPS-induced mouse BV-2 cells assessed as inhibition of IL-1 beta release at 0.5 uM preincubated for 30 mins followed by LPS stimulation and measured after 24 hrs relative to control; format: functional; set-up: scale not given: the % may be the effect or the level left; details: time 24.5 hrs
[18] = AUC (0 to t) in Balb/C mouse plasma at 30 mg/kg, IG measured upto 8 hrs by LC-MS analysis; format: ADME, organism-based; details: po
BV-2 [19] = test: Cytotoxicity against mouse BV-2 cells at upto 10 uM measured after 24 hrs by MTT assay; format: toxicity, cell-based; details: bv-2, 24 h
Mus musculus [20] = test: Neuroprotective activity in Sodium nitrite induced cognition impairement in C57BL/6 mouse model assessed as decrease in MAD level administered daily as IG for 7 days; format: functional, organism-based; details: dose 1.1-9.9 mg/kg, time 7.0 day
[21] = Cmax in Balb/C mouse plasma at 30 mg/kg, IG measured upto 8 hrs by LC-MS analysis; format: ADME, organism-based; details: po
[22] = target: Amyloid-beta precursor protein (Homo sapiens) (UniProt P05067); test: Inhibition of amyloid beta (1 to 42) (unknown origin) fibrillation assessed as decrease in thickness of amyloid beta fibrils at 25 uM measured after 24 hrs by TEM analysis
[23] = target: Amyloid-beta precursor protein (Homo sapiens) (UniProt P05067); test: Inhibition of amyloid beta (1 to 42) (unknown origin) fibrillation assessed as short amyloid beta fibrils at 25 uM measured after 24 hrs by TEM analysis
PC-12 [24] = test: Neuroprotective activity against H2O2 induced rat PC12 cells assessed as increase in cell viability at 10 uM measured after 24 hrs by MTT assay relative to control; format: functional
HT-22 [25] = test: Neuroprotective activity against amyloid beta (1 to 42)-induced injury in mouse HT-22 cells assessed as increase in cell viability at 10 uM incubated for 24 hrs by MTT assay relative to control; format: functional
Mus musculus [26] = test: Neuroprotective activity in Sodium nitrite induced cognition impairement in C57BL/6 mouse model assessed as increase in SOD activity administered daily as IG for 7 days; format: functional, organism-based; details: dose 1.1-9.9 mg/kg, time 7.0 day
PC-12 [27] = test: Neuroprotective activity against H2O2 induced rat PC12 cells assessed as increase in cell viability at 25 uM measured after 24 hrs by MTT assay relative to control; format: functional
[28] = Half life in Balb/C mouse plasma at 30 mg/kg, IG measured upto 8 hrs by LC-MS analysis; format: ADME, organism-based; details: po
BV-2 [29] = test: Antineuroinflammatory activity in LPS-induced mouse BV-2 cells assessed as inhibition of NO release at 0.5 uM preincubated for 30 mins followed by LPS stimulation and measured after 24 hrs relative to control; format: functional; set-up: scale not given: the % may be the effect or the level left; details: time 24.5 hrs

Chain of Amyloid-beta precursor protein (Homo sapiens) (P05067 whole entry): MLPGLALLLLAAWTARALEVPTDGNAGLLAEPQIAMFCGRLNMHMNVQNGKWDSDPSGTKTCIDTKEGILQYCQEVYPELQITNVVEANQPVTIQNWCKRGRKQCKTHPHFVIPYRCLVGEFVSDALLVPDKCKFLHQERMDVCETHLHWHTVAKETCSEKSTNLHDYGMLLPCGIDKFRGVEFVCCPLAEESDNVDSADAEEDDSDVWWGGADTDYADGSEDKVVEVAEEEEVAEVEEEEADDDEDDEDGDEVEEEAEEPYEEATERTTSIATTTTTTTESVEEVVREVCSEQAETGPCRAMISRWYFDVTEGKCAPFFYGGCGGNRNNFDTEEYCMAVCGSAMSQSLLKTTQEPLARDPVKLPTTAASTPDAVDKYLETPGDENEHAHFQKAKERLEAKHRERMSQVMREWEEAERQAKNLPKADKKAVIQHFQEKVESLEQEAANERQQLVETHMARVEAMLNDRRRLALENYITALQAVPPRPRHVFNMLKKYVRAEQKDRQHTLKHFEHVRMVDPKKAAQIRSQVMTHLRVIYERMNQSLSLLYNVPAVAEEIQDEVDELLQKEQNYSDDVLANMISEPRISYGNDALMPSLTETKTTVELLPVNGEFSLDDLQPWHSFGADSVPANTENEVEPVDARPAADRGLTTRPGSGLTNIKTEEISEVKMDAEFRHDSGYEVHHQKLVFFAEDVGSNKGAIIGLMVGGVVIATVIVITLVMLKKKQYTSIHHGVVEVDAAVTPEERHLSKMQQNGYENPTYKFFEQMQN

AUCt [4]: 681.3 ng·h/g
inhibition [7]: Active
Activity [8]: Active
Kp at 8 h [10]: 0.8
inhibition [16]: Active
AUC(0-t) at 8 h [18]: 852 ng·h/mL
Cmax [21]: 879 ng/mL
inhibition [22]: Active
inhibition [23]: Active
half-life [28]: 51 min
Structure (SMILES): CCCCCC1OC(=O)c2c1cc(OC)c(O)c2O (centres undefined)
Activity (HT-22 [1]): Active
Activity [2]: Active
Activity (BV-2 [3]): 47%
Activity (BV-2 [5]): Non-Toxic
Activity (HT-22 [6]): Dose-Dependent Effect
Activity (HT-22 [9]): Active
Activity (BV-2 [11]): 40.1%
Activity (PC-12 [12]): inactive
Activity (Mus musculus [13]): Active
Activity (Mus musculus [14]): Active
Activity (BV-2 [15]): 75.8%
Activity (BV-2 [17]): 36.6%
Activity (BV-2 [19]): Non-Toxic
Activity (Mus musculus [20]): Dose-Dependent Effect
Activity (PC-12 [24]): 80.7%
Activity (HT-22 [25]): 89.2%
Activity (Mus musculus [26]): Dose-Dependent Effect
Activity (PC-12 [27]): 83.9%
Activity (BV-2 [29]): 31.1%
